In patent US9642831B2, “Substituted chromanes and method of use” (AbbVie S.á.r.l., priority 2014, dated 2017):
pEC50: −log10 of the molar value.

Tests used:
CYP3A4 = CYP3A4 induction in primary human hepatocytes (mRNA, RT-PCR); details: test compounds 10 μM, 48 hours, % of response of positive control (Rifampin 10 μM)
Protocol: Cryopreserved primary human hepatocytes were thawed and cultured overnight prior to treatment. […] Following the 48 hour treatment, hepatocytes were harvested for RNA isolation and reverse transcription, followed by CYP3A4 mRNA quantitation using RT-PCR (real time reverse transcript polymerase chain reaction).
Fold Induction=Fold of Treated/Fold of Vehicle Control % positive control=(Fold Induction of Treated−1)/(Fold Induction of Prototypical Inducer−1)

F508delCFTR [1] = molecular target: T1, F508delCFTR (Homo sapiens, UniProt P13569, DEL508-508); test: Cell Surface Expression-Horse Radish Peroxidase (CSE-HRP) assay; type: cell-based; set-up: expressed in transfected cells; host or cells: CFBE41o- human lung derived epithelial cell line, doxycycline-inducible; details: CFBE4lo-F508delCFTR-HRP cells; for pEC50: 18-24 hours at 33° C., 8-point curve, highest concentration 20 μM, luminescence readout; for Emax: maximum % activity at any tested concentration, normalized to on-plate positive control (3 μM Example 1)
In short: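 Following 18-24 h compound exposure at 33° C. Expression was doxycycline-induced beforehand. % activity versus DMSO and a 3 μM corrector control gave maximum activity and EC50 from a variable-Hill sigmoidal fit.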

F508delCFTR [2] = molecular target: T1, F508delCFTR; test: Transepithelial Clamp Circuit (TECC-24) conductance assay on primary human bronchial epithelial cells (hBE-TECC); type: cell-based; set-up: cells isolated from CF patients with the homozygous mutation; endogenous in cells; host or cells: primary human bronchial epithelial (hBE) cells from F508del/F508del CF patients; details: for pEC50: primary hBE cells from F508del/F508delCFTR patients, corrector 18-24 hours at 37° C., equivalent short circuit current (Ieq), with control potentiator 1 μM; for Emax: relative to positive control (3 μM Example 1 coupled with control potentiator = 100%), primary hBE F508del/F508del cells, read-out: Maximum % activity (%)
Excerpt: Transepithelial Clamp Circuit on Human Bronchial Epithelial Cells Conductance Assay:
A cell based assay using the primary human bronchial epithelial cells (hBE) was used as a secondary assay to test novel F508delCFTR correctors for their activity on primary hBE cells with F508del/F508del CFTR mutation. The assay used a TECC-24 (Transepithelial Clamp Circuit for 24 wells) instrument that measures the functionality of the mutated channel by measuring the equivalent short circuit current (Ieq) generated by the polarized epithelial cells. The instrument works by measuring the transepithelial potential difference (Vt) and transepithelial resistance (Rt) in an open circuit format, and the Ieq is calculated by using Ohms law (Ieq=Vt/Rt). The assay was run in a 24-well format and all 24-wells were measured at the same time point giving a higher throughput for this assay.
Primary human bronchial epithelial (hBE) cells from F508del/F508delCFTR patients were expanded from 1×10^6 to 250×10^6 cells (Neuberger T, Burton B, Clark H and VanGoor F; Cystic Fibrosis, Methods in Mole Biol 741; eds. Amaral M D and Kunzelmann K, 2011). For this purpose, cells isolated from CF patients with the homozygous mutation were seeded onto 24 well Corning (Cat #3378) filter plates that were coated with 3T3 conditioned media and grown at an air-liquid interface for 35 days using an Ultroser® G supplemented differentiation media. Apical surface mucus was removed 72 hours before the experiment using 3 mM dithiothreitol (DTT) in phosphate buffered saline (PBS). The apical surface was washed again 24 hours before the experiment using PBS. The cells were incubated with the desired dose response of the corrector compounds 18-24 hours at 37° C., 5% CO2. The corrector compounds are only added on the basolateral side of the epithelial cells.
On the day of measuring the corrector activity on the TECC, the cells were switched into a bicarbonate and serum free F-12 Coon's medium and allowed to equilibrate for 90 minutes in a CO2 free incubator. At the time of measurement, the apical and basolateral sides of the filter were bathed with the F-12 Coon's modification media (with 20 mM 4-(2-hydroxyethyl)-1-piperazineethanesulfonic acid (HEPES), pH 7.4 (using 1 M tris(hydroxymethyl)aminormethane (Tris)), and the measurements were made at 36.5° C. Transepithelial voltage (Vt) and transepithelial resistance (Rt) were measured using a 24 channel transepithelial current clamp (TECC-24). Current responses to the sequential addition of benzamil (apical 6 μM addition; for inhibiting epithelial ENaC channel), forskolin (apical and basolateral 10 μM addition; for activating the CFTR channel), control potentiator (N-(3-carbamoyl-5,5,7,7-tetramethyl-4,7-dihydro-5H-thieno[2,3-c]pyran-2-yl)-1H-pyrazole-5-carboxamide; apical and basolateral 1 μM addition; for potentiating the CFTR channel) and bumetanide (basolateral 20 μM addition; for inhibiting the Na:2Cl:K co-transporter, an indirect measure of inhibiting the Cl-secretion driven by CFTR channel) were measured.
All plates contained negative controls (dimethyl sulfoxide, DMSO) which coupled with the control potentiator (N-(3-carbamoyl-5,5,7,7-tetramethyl-4,7-dihydro-5H-thieno[2,3-c]pyran-2-yl)-1H-pyrazole-5-carboxamide) sets the null response and positive controls (3 μM of 3-[(2R,4R)-4-({[1-(2,2-difluoro-1,3-benzodioxol-5-yl)cyclopropyl]carbonyl}amino)-7-methoxy-3,4-dihydro-2H-chromen-2-yl]benzoic acid) coupled with the control potentiator sets the 100% response to measure the correction of the mutated CFTR channel. The maximum percent activity is reported relative to the positive control value.
The % activity measured at each of the 6 test concentrations of the test compound was normalized to the on-plate positive control using the following formula: % activity=[(test compound response−DMSO response)/(positive control response−DMSO response)]*100 […]

T1 sequence (P13569 with tags, fused parts or gaps DEL508-508): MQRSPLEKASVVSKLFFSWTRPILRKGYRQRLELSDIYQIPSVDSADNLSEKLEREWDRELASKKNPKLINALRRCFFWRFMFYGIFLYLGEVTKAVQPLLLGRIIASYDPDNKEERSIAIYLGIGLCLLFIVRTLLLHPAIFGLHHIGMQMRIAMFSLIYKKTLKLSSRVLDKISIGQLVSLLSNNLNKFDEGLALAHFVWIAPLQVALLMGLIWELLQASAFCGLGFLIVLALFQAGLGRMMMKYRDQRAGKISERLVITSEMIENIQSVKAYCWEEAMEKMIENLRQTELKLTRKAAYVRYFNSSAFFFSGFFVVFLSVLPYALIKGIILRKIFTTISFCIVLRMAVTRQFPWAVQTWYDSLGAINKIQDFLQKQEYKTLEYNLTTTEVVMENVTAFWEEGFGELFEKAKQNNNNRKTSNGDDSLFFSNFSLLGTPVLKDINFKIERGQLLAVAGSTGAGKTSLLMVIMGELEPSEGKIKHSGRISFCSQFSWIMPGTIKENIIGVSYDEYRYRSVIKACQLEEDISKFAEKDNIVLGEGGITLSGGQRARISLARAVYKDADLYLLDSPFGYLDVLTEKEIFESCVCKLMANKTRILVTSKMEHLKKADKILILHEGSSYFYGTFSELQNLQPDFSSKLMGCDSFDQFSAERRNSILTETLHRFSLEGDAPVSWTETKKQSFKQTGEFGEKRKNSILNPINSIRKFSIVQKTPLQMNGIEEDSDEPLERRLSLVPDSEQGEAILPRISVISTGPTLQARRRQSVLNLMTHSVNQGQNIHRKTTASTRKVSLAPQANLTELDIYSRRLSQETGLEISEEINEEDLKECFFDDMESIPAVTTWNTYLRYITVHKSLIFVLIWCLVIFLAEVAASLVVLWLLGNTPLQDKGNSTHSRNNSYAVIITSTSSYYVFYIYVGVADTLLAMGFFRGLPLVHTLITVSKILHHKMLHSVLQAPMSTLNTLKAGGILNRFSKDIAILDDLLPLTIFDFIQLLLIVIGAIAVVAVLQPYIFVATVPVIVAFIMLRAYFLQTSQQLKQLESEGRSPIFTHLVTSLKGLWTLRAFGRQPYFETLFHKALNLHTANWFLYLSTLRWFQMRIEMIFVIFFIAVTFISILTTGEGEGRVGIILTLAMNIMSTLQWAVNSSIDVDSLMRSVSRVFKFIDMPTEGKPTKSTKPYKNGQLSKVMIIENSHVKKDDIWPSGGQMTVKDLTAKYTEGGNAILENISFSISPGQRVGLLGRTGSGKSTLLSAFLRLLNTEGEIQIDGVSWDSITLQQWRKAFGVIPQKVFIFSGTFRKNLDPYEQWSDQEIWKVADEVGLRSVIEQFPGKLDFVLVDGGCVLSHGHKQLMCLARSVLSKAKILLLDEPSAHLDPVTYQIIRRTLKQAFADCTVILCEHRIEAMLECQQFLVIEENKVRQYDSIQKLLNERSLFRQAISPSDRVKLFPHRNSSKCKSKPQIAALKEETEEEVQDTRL

What does the source list for `COc1ccc2c(n1)O[C@@H](c1cccc(C(=O)O)c1)C[C@H]2NC(=O)C1(c2ccc3c(c2)OC(F)(F)O3)CC1` (racemic) [Example 28, rac-3-[(2R,4R)-4-({[1-(2,2-difluoro-1,3-benzodioxol-5-yl)cyclopropyl]carbonyl}amino)-7-methoxy-3,4-dihydro-2H-pyrano[2,3-b]pyridin-2-yl]benzoic acid]?
CYP3A4 Hepatocytes mRNA % of positive control (CYP3A4): 9.41%; pEC50 (F508delCFTR [1]): 5.49; Emax (F508delCFTR [1]): 98%; pEC50 (F508delCFTR [2]): 5.47; Emax (F508delCFTR [2]): 51%

`COc1ccc2c(c1)O[C@@H](C13CC(C(=O)O)(C1)C3)C[C@H]2NC(=O)C1(c2ccc3c(c2)OC(F)(F)O3)CC1` (racemic) [Example 148, rac-3-[(2R,4R)-4-({[1-(2,2-difluoro-1,3-benzodioxol-5-yl)cyclopropyl]carbonyl}amino)-7-methoxy-3,4-dihydro-2H-chromen-2-yl]bicyclo[1.1.1]pentane-1-carboxylic acid] was tested. Which pEC50 (F508delCFTR [1]) did it give?
Its pEC50 is 5.67.

And the Emax (F508delCFTR [1])?
The Emax was 77%.

And the pEC50 (F508delCFTR [2])?
Its pEC50 is 5.96.

And the Emax (F508delCFTR [2])?
The Emax was 44%.

`COc1ccc2c(c1)O[C@@H](c1cccc(C(=O)O)c1)C[C@H]2NC(=O)C1(c2ccc3c(c2)OC(F)(F)O3)CC1` [Example 1, 3-[(2R,4R)-4-({[1-(2,2-difluoro-1,3-benzodioxol-5-yl)cyclopropyl]carbonyl}amino)-7-methoxy-3,4-dihydro-2H-chromen-2-yl]benzoic acid] was tested. Which “CYP3A4 Hepatocytes mRNA % of positive control” value (shortened to “CYP3A4 Hepatocytes mRNA %”) (CYP3A4) did it give?
Its value is 14%.

What about the pEC50 (F508delCFTR [1]) of the same compound?
Its pEC50 is 6.55.

And the Emax (F508delCFTR [1])?
The Emax was 102%.

And the pEC50 (F508delCFTR [2])?
The pEC50 was 6.54.

And the Emax (F508delCFTR [2])?
The Emax was 95%.

For `COc1ccc2c(c1)O[C@@H](c1ccc(OC)c(OC)c1)C[C@H]2NC(=O)C1(c2ccc3c(c2)OC(F)(F)O3)CC1` [Example 3, 1-(2,2-difluoro-1,3-benzodioxol-5-yl)-N-[(2R,4R)-2-(3,4-dimethoxyphenyl)-7-methoxy-3,4-dihydro-2H-chromen-4-yl]cyclopropanecarboxamide], which “CYP3A4 Hepatocytes mRNA %” value (CYP3A4) is on record?
The value was 49.3%.

And the pEC50 (F508delCFTR [1])?
Its pEC50 is 6.41.

And the Emax (F508delCFTR [1])?
The Emax was 135%.

How did the “CYP3A4 Hepatocytes mRNA %” value (CYP3A4) turn out when `O=C(O)c1cccc([C@H]2C[C@@H](NC(=O)C3(c4ccc5c(c4)OC(F)(F)O5)CC3)c3ccccc3O2)c1` [Example 9, 3-[(2R,4R)-4-({[1-(2,2-difluoro-1,3-benzodioxol-5-yl)cyclopropyl]carbonyl}amino)-3,4-dihydro-2H-chromen-2-yl]benzoic acid] was run?
Its value is 16.1%.

And the pEC50 (F508delCFTR [1])?
The pEC50 was 6.38.

And the Emax (F508delCFTR [1])?
The Emax was 84%.

And the pEC50 (F508delCFTR [2])?
Its pEC50 is 6.80.

And the Emax (F508delCFTR [2])?
The Emax was 92%.

`Cc1ccc2c(c1)[C@H](NC(=O)C1(c3ccc4c(c3)OC(F)(F)O4)CC1)C[C@H](c1cccc(C(=O)O)c1)O2` [Example 14, 3-[(2R,4R)-4-({[1-(2,2-difluoro-1,3-benzodioxol-5-yl)cyclopropyl]carbonyl}amino)-6-methyl-3,4-dihydro-2H-chromen-2-yl]benzoic acid] was tested. Which “CYP3A4 Hepatocytes mRNA %” value (CYP3A4) did it give?
Its value is 3.54%.

What about the pEC50 (F508delCFTR [1]) of the same compound?
Its pEC50 is 6.07.

And the Emax (F508delCFTR [1])?
Its Emax is 78%.

`COc1ccc2c(c1)[C@H](NC(=O)C1(c3ccc4c(c3)OC(F)(F)O4)CC1)C[C@H](c1cccc(C(=O)O)c1)O2` [Example 19, 3-[(2R,4R)-4-({[1-(2,2-difluoro-1,3-benzodioxol-5-yl)cyclopropyl]carbonyl}amino)-6-methoxy-3,4-dihydro-2H-chromen-2-yl]benzoic acid] was tested. Which “CYP3A4 Hepatocytes mRNA %” value (CYP3A4) did it give?
The value was 9.38%.

And the pEC50 (F508delCFTR [1])?
The pEC50 was 6.20.

What about the Emax (F508delCFTR [1]) of the same compound?
The Emax was 103%.

And the pEC50 (F508delCFTR [2])?
Its pEC50 is 6.68.

What about the Emax (F508delCFTR [2]) of the same compound?
The Emax was 111%.

With `O=C(O)C1CCCC([C@H]2C[C@@H](NC(=O)C3(c4ccc5c(c4)OC(F)(F)O5)CC3)c3ccc(OC(F)F)cc3O2)C1` (stereo partly drawn) [Example 26, 3-[(2R,4R)-4-({[1-(2,2-difluoro-1,3-benzodioxol-5-yl)cyclopropyl]carbonyl}amino)-7-(difluoromethoxy)-3,4-dihydro-2H-chromen-2-yl]cyclohexanecarboxylic acid] as the compound, how does the pEC50 (F508delCFTR [1]) read?
Its pEC50 is 6.47.

What about the Emax (F508delCFTR [1]) of the same compound?
The Emax was 93%.

What about the pEC50 (F508delCFTR [2]) of the same compound?
The pEC50 was 6.96.

What about the Emax (F508delCFTR [2]) of the same compound?
The Emax was 88%.

`O=C(O)c1cccc([C@H]2C[C@@H](NC(=O)C3(c4ccc5c(c4)OC(F)(F)O5)CC3)c3ccc(OC(F)F)cc3O2)c1` [Example 27, 3-[(2R,4R)-4-({[1-(2,2-difluoro-1,3-benzodioxol-5-yl)cyclopropyl]carbonyl}amino)-7-(difluoromethoxy)-3,4-dihydro-2H-chromen-2-yl]benzoic acid] was tested. Which pEC50 (F508delCFTR [1]) did it give?
The pEC50 was 6.92.

And the Emax (F508delCFTR [1])?
Its Emax is 113%.

And the pEC50 (F508delCFTR [2])?
The pEC50 was 7.12.

And the Emax (F508delCFTR [2])?
Its Emax is 117%.

`O=C(O)c1cccc([C@H]2C[C@@H](NC(=O)C3(c4ccc5c(c4)OC(F)(F)O5)CC3)c3ccc(F)cc3O2)c1` [Example 38, 3-[(2R,4R)-4-({[1-(2,2-difluoro-1,3-benzodioxol-5-yl)cyclopropyl]carbonyl}amino)-7-fluoro-3,4-dihydro-2H-chromen-2-yl]benzoic acid] was tested. Which “CYP3A4 Hepatocytes mRNA %” value (CYP3A4) did it give?
Its value is 40.2%.

`O=C(O)c1cccc([C@H]2C[C@@H](NC(=O)C3(c4ccc5c(c4)OC(F)(F)O5)CC3)c3ccc(C(F)(F)F)cc3O2)c1` [Example 108, 3-[(2R,4R)-4-({[1-(2,2-difluoro-1,3-benzodioxol-5-yl)cyclopropyl]carbonyl}amino)-7-(trifluoromethyl)-3,4-dihydro-2H-chromen-2-yl]benzoic acid] was tested. Which “CYP3A4 Hepatocytes mRNA %” value (CYP3A4) did it give?
Its value is 39.6%.

And the pEC50 (F508delCFTR [1])?
Its pEC50 is 6.47.

What about the Emax (F508delCFTR [1]) of the same compound?
The Emax was 115%.

And the pEC50 (F508delCFTR [2])?
Its pEC50 is 7.07.

And the Emax (F508delCFTR [2])?
The Emax was 96%.

How did the pEC50 (F508delCFTR [1]) turn out when `O=C(O)c1cccc([C@H]2C[C@@H](NC(=O)C3(c4ccc5c(c4)OC(F)(F)O5)CC3)c3cccc(F)c3O2)c1` [Example 119, 3-[(2R,4R)-4-({[1-(2,2-difluoro-1,3-benzodioxol-5-yl)cyclopropyl]carbonyl}amino)-8-fluoro-3,4-dihydro-2H-chromen-2-yl]benzoic acid] was run?
Its pEC50 is 6.06.

And the Emax (F508delCFTR [1])?
The Emax was 71%.

And the pEC50 (F508delCFTR [2])?
Its pEC50 is 6.35.

What about the Emax (F508delCFTR [2]) of the same compound?
Its Emax is 80%.

With `O=C(O)c1ccc([C@H]2C[C@@H](NC(=O)C3(c4ccc5c(c4)OC(F)(F)O5)CC3)c3ccccc3O2)cc1` [Example 121, 4-[(2R,4R)-4-({[1-(2,2-difluoro-1,3-benzodioxol-5-yl)cyclopropyl]carbonyl}amino)-3,4-dihydro-2H-chromen-2-yl]benzoic acid] as the compound, how does the pEC50 (F508delCFTR [1]) read?
The pEC50 was 6.89.

What about the Emax (F508delCFTR [1]) of the same compound?
Its Emax is 102%.

What about the pEC50 (F508delCFTR [2]) of the same compound?
The pEC50 was 7.42.

And the Emax (F508delCFTR [2])?
The Emax was 87%.

How did the pEC50 (F508delCFTR [1]) turn out when `COc1ccc2c(c1)O[C@@H](c1ccc(C(=O)O)c(F)c1)C[C@H]2NC(=O)C1(c2ccc3c(c2)OC(F)(F)O3)CC1` [Example 139, 4-[(2R,4R)-4-({[1-(2,2-difluoro-1,3-benzodioxol-5-yl)cyclopropyl]carbonyl}amino)-7-methoxy-3,4-dihydro-2H-chromen-2-yl]-2-fluorobenzoic acid] was run?
Its pEC50 is 7.00.

What about the Emax (F508delCFTR [1]) of the same compound?
The Emax was 115%.

What about the pEC50 (F508delCFTR [2]) of the same compound?
The pEC50 was 7.50.

What about the Emax (F508delCFTR [2]) of the same compound?
Its Emax is 100%.
